According to US20210300981A1, “COMPOSITIONS AND METHODS FOR COMBATING MULTIDRUG-RESISTANT BACTERIA” (University of Virginia Patent Foundation, priority 2018, published 2021):
Where a SMILES comes first, the peptide text is derived from it. Where no end group is shown, it is not given here. [ ]: non-standard residue; d: D form. ξ: configuration not given here. ξαMeGly(pent-4-enyl) = C=CCCCC(C)(N)C(=O)O

Key:
MDR A. baumannii = settings: 2 h, 1.4 μM
MDR S. Typhi [1] = settings: 2 h, 2.8 μM
CRE K. pneumoniae [2] = test system: CRE K. pneumoniae
MDR P. aeruginosa = settings: 2 h, 5.6 μM
MRSA = settings: 2 h, 11.2 μM
VRE = settings: 2 h, 11.2 μM
MDR Enterobacter cloacae = settings: 2 h, 16.8 μM
N. gonorrhoeae = settings: 2 h, 22.4 μM
B. anthracis = settings: 2 h, 22.4 μM
[3] = assay media, higher concentrations
CRE K. pneumoniae [4] = type: cell-based, Klebsiella pneumoniae; settings: for function of alanine scan variants: 2 hours (FIGS. 21, 22); for bactericidal activity versus negative control Peptide P5: 2.5×10^5 cfu/ml
[5] = Truncation of Peptide P9, retention of activity; settings: first 6 amino acids removed
Excerpt: In some embodiments, alanine scans are available for […] (SEQ ID NO: 11). The alanine scan was used to modify the malleable position 8 and to make a conservative substitution at alanine residue 12 with an alkenyl derivative of alanine, namely, 2-(4-pentenyl)alanine, and then the alkene groups at positions 8 and 12 were coupled/stapled. Thus, a modified peptide in accordance with the presently disclosed subject matter includes a coupled peptide or a stapled peptide. […] Further, the first 6 amino acids present in […] (SEQ ID NO: 11) can be removed one by one while still retaining activity; removing all 6 gives KNLLKAVSKERSKRSP (SEQ ID NO: 12). Further truncations are also provided, including from the other end (such as the two end residues based on the alanine scan).

MDR S. Typhi [6] = type: cell-based, Salmonella enterica serovar Typhi; settings: 50 μM, RPMI/HEPES, 2.5×10^5 cfu/ml
CD45+/CD3+ T lymphocytes = test: Host-targeted bioregulatory effects: in vivo recruitment/infiltration of T lymphocytes; design: species or system C57BL/6 mice; settings: as stated in the sequence description; FIG. 12
[7] = test system: B. anthracis Sterne strain 7702 spores; type: cell-based, Bacillus anthracis; settings: 50 μM, RPMI/HEPES+2% FBS, 3 hours post-treatment, 1.0×10^7 cfu/ml spores
K. pneumoniae ATCC 43816 = test: Full-thickness wound infection model; type: in vivo, C57BL/6 mice
trypsin protease = test: Resistance to proteolytic degradation (trypsin pretreatment, read out by killing of CRE K. pneumoniae); settings: trypsin 200:1 molar ratio, 2 hours, 50 mM Tris-HCl + 20 mM CaCl2

## CC[C@H](C)[C@H](NC(=O)[C@H](CO)NC(=O)[C@@H](NC(=O)[C@H](CS)NC(=O)[C@@H](NC(=O)[C@H](CS)NC(=O)[C@H](CCCNC(=N)N)NC(=O)[C@@H](NC(=O)[C@@H](NC(=O)[C@H](CCCNC(=N)N)NC(=O)[C@H](CO)NC(=O)[C@H](CC(C)C)NC(=O)[C@@H]1CCCN1C(=O)[C@@H](N)C(C)C)[C@@H](C)O)C(C)C)[C@@H](C)O)[C@@H](C)CC)C(=O)O [Peptide P1, VPLSRTVRCTCISI] (H-VPLSRTVRCTCISI-OH; N-terminus and C-terminus assumed)
MDR A. baumannii
  killing of bacteria: 99.0-99.9%
MDR S. flexneri; MDR, 2 h, 2.8 μM
  killing of bacteria: 99.0-99.9%
MDR S. Typhi [1]
  killing of bacteria: 99.0-99.9%
CRE K. pneumoniae [2]; CRE, 2 h, 5.6 μM
  killing of bacteria: 99.0-99.9%
MDR P. aeruginosa
  killing of bacteria: 99.0-99.9%
MRSA
  killing of bacteria: 99.0-99.9%
VRE
  killing of bacteria: 99.0-99.9%
MDR Enterobacter cloacae
  killing of bacteria: 99.0-99.9%
N. gonorrhoeae
  killing of bacteria: 99.0-99.9%
B. anthracis
  killing of bacteria: 99.0-99.9%
[3]
  solubility: experienced solubility issues at higher concentrations

## ATVRCTCI (Artificially synthesized antibacterial peptide or conjugate) [SEQ ID NO: 25, alanine scan variant of Peptide L8, position 1]
CRE K. pneumoniae [4]; 50 μM, RPMI/HEPES
  function of alanine scan variants: still functional

## CSVPTITCRVRLIS (Artificially synthesized antibacterial peptide or conjugate) [Peptide P1scram]
MDR S. flexneri; 2.8 μM peptide, FIG. 6
  survival of bacteria following exposure (killing): did not kill bacteria
CRE K. pneumoniae [2]; 2.8 μM peptide, FIG. 6
  survival of bacteria following exposure (killing): did not kill bacteria

## KNLLKAVSKERSKRSP (Artificially synthesized antibacterial peptide or conjugate) [SEQ ID NO: 12, 16 amino acid core, truncated version of Peptide P9]
[5]
  retention of the activities of Peptide P9 after truncation: retains the activities of Peptide P9

## L8-L8-L8: three copies of Peptide L8 concatemerized in head-to-tail configuration (RTVRCTCIRTVRCTCIRTVRCTCI; Artificially synthesized antibacterial peptide or conjugate) [Peptide L8-L8-L8]
CRE K. pneumoniae [4]; 50 μM, RPMI/HEPES
  bactericidal activity versus negative control Peptide P5: killed CRE K. pneumoniae statistically significantly more effectively than Peptide P5

## LSRTVRCTCISI (Artificially synthesized antibacterial peptide or conjugate) [Peptide ΔVP, truncated Peptide P1 variant lacking the first two amino acids]
CRE K. pneumoniae [4]; 50 μM, RPMI/HEPES
  bactericidal activity versus negative control Peptide P5: statistically significant differences
MDR S. Typhi [6]
  bactericidal activity versus negative control Peptide P5: statistically significant differences
CD45+/CD3+ T lymphocytes
  immunomodulatory activity: reduced or absent immunomodulatory activity

## PESKAIK(pA)LLK(pA)VSKERSKRSP (PESKAIK[ξαMeGly(pent-4-enyl)]LLK[ξαMeGly(pent-4-enyl)]VSKERSKRSP) [alkene-modified peptide, Peptide P9 variant with 2-(4-pentenyl)alanine at amino acids 8 and 12]
CRE K. pneumoniae [4]; 50 μM, RPMI/HEPES, 2 hours (FIG. 20)
  activity of modified Peptide P9 variants relative to Peptide P9: increased activity

## PESKAIKNLLKAVSKERSKRSP [Peptide P9]
CRE K. pneumoniae [4]; 10 mM KPB/1% TSB, 2 hours at 37° C., FIG. 10
  activity in hypotonic buffer: had activity
CRE K. pneumoniae [4]; RPMI/HEPES, 2 hours at 37° C., FIG. 10
  activity in RPMI (normosaline): lost activity
N. gonorrhoeae
  killing of bacteria: 99.0-99.9%

## PESKAIKNLLKAVSKERSKRSPGGGVPLSRTVRCTCISI (Artificially synthesized antibacterial peptide or conjugate) [Peptide P59, Peptide P9 conjugated to Peptide P1 via a tri-glycine linker]
[7]
  spore germination (numbers of bacilli): reduced spore germination

## RAVRCTCI (Artificially synthesized antibacterial peptide or conjugate) [SEQ ID NO: 26, alanine scan variant of Peptide L8, position 2]
CRE K. pneumoniae [4]; 50 μM, RPMI/HEPES
  function of alanine scan variants: still functional

## RTVRCTCI [Peptide D8]
CRE K. pneumoniae [4]; 50 μM peptide pretreated with trypsin (200:1 molar ratio) for 2 hours
  antimicrobial activity after incubation with trypsin: retaining antimicrobial activity
CRE K. pneumoniae [4]; 50 μM, RPMI/HEPES
  bactericidal activity versus negative control Peptide P5: statistically significant differences
MDR S. Typhi [6]
  bactericidal activity versus negative control Peptide P5: statistically significant differences
[7]
  spore germination (numbers of bacilli): reduced spore germination
K. pneumoniae ATCC 43816; 10 μl of 1.2% peptide in saline topically, 4 hours post-infection then twice per day for 4 days, versus saline
  survival (Kaplan-Meier) of infected mice: statistically significant increase in survival
K. pneumoniae ATCC 43816; same treatment, day 14 post-infection
  bacterial burden of wound swabs on LB agar: No bacterial growth was observed
K. pneumoniae ATCC 43816; same treatment, through day 21
  wound status over the course of infection: bacterial infection was resolved and healing occurred
Trypsin protease
  resistance to proteolytic degradation: resistant to proteolytic degradation

## RTVRCTCI [Peptide L8]
CRE K. pneumoniae [4]; 50 μM, RPMI/HEPES
  bactericidal activity versus negative control Peptide P5: killed CRE K. pneumoniae statistically significantly more effectively than Peptide P5

## VPLSRTVRTVRCTCISIGGGPESKAIKNLLKAVSKERSKRSP [Peptide P55]
CRE K. pneumoniae [4]; 50 μM, RPMI/HEPES
  bactericidal activity versus negative control Peptide P5: statistically significant differences
MDR S. Typhi [6]
  bactericidal activity versus negative control Peptide P5: statistically significant differences
